Assay results from patent publication US12115208B2, “Small-molecule adjuvants for antibiotics to address antibiotic resistance” (HIGH POINT UNIVERSITY, priority 2017, dated 2024).
In brackets after ≈: the same amount, converted by molar mass.

Experiments:
Assay type in all cases: cell-based, Staphylococcus aureus
S. aureus USA100 (MRSA) [1] = assay: Antibiotic repotentiation (antibiotic MIC with/without compound)
Protocol: (§1) The overnight culture was diluted into fresh CAMHB to a concentration of 5×10^5 CFU/ml. […] On the same plate, a standard microdilution MIC with the tested antibiotics and no added compound was also performed to compare the antibiotic MIC in the presence and absence of compound. […] Fold reductions were calculated by dividing the MIC of the antibiotic without compound by the MIC of the antibiotic in the presence of compound.

[2] = tested on: S. aureus NR-49120 (VRSA); assay: as above; settings: VRSA NR-49120; for Fold Reduction: antibiotic MIC
Protocol: as §1

S. aureus USA300 (MRSA) [3] = assay: as above; settings: for MIC of antibiotic: MRSA USA300; for Oxacillin MIC / Fold Reduction: +50 μM compound, S. aureus USA300 (MRSA); for Fold Reduction: oxacillin MIC
Protocol: as §1
(§2) The compounds were then analyzed for antibiotic repotentiation activity. […] The tested strains included USA300, which is a common and particularly virulent strain of community-acquired MRSA.

S. aureus 43300 (MRSA) = assay: as above
Protocol: as §1, §2

S. aureus USA300 (MRSA) [4] = assay: Minimum inhibitory concentration, broth microdilution; settings: compound alone; S. aureus USA300 (MRSA); CAMHB, 18 h; read-out: MIC
Protocol: as §2

[5] = tested on: S. aureus ATCC 43300 (MRSA); assay: as above; settings: compound alone; S. aureus ATCC 43300 (MRSA); CAMHB, 18 h; read-out: MIC
Protocol: as §2

S. aureus USA100 (MRSA) [6] = assay: microbe, parasite or virus in culture; settings: compound alone, CAMHB, 18 h
[7] = antibiotic MIC, +Loratadine 25 μM, MRSA USA100
[8] = antibiotic MIC, +Loratadine 50 μM, MRSA USA100
[9] = +Amoxapine (150 μM), S. aureus 43300 (MRSA)
[10] = antibiotic MIC, +Amoxapine (150 μM), S. aureus 43300 (MRSA)
[11] = antibiotic MIC, +Loratadine 25 μM, MRSA 43300
[12] = antibiotic MIC, +Loratadine 50 μM, MRSA 43300
[13] = antibiotic alone, no compound, S. aureus 43300 (MRSA)
[14] = antibiotic alone, S. aureus ATCC 43300 (MRSA)
[15] = +50 μM compound, S. aureus USA100 (MRSA)
[16] = oxacillin MIC, +50 μM compound, S. aureus USA100 (MRSA)
[17] = +50 μM compound, S. aureus 43300 (MRSA)
[18] = oxacillin MIC, +50 μM compound, S. aureus 43300 (MRSA)

Cc1nnc(SCC2=C(C(=O)O)N3C(=O)[C@@H](NC(=O)Cn4cnnn4)[C@H]3SC2)s1 [Cefazolin]
MIC of antibiotic (S. aureus USA100 (MRSA) [1]; +Loratadine 25 μM, MRSA USA100): 128 µg/mL | MIC of antibiotic (S. aureus USA100 (MRSA) [1]; +Loratadine 50 μM, MRSA USA100): 1 µg/mL | Fold Reduction (S. aureus USA100 (MRSA) [1]; [7]): 2 | Fold Reduction (S. aureus USA100 (MRSA) [1]; [8]): 256 | MIC of antibiotic (S. aureus USA100 (MRSA) [1]; antibiotic alone, MRSA USA100): 256 µg/mL | MIC of antibiotic ([2]; +Loratadine 25 μM): 32 µg/mL | MIC of antibiotic ([2]; +Loratadine 50 μM): 8 µg/mL | Fold Reduction ([2]; +Loratadine 25 μM): 4 | Fold Reduction ([2]; +Loratadine 50 μM): 16 | MIC of antibiotic ([2]; antibiotic alone): 128 µg/mL | MIC of antibiotic (S. aureus USA300 (MRSA) [3]; +Loratadine 25 μM): 4 µg/mL | MIC of antibiotic (S. aureus USA300 (MRSA) [3]; +Loratadine 50 μM): 1 µg/mL | MIC of antibiotic (S. aureus USA300 (MRSA) [3]; antibiotic alone): 32 µg/mL | MIC of antibiotic (S. aureus 43300 (MRSA); [9]): 0.5 µg/mL | MIC of antibiotic (S. aureus 43300 (MRSA); +Loratadine 25 μM, MRSA 43300): 16 µg/mL | MIC of antibiotic (S. aureus 43300 (MRSA); +Loratadine 50 μM, MRSA 43300): 1 µg/mL | Fold Reduction (S. aureus 43300 (MRSA); [10]): 32 | Fold Reduction (S. aureus 43300 (MRSA); [11]): 4 | Fold Reduction (S. aureus 43300 (MRSA); [12]): 64 | MIC of antibiotic (S. aureus 43300 (MRSA); [13]): 16 µg/mL | MIC of antibiotic (S. aureus 43300 (MRSA); [14]): 64 µg/mL

c1ccc2c(c1)[nH]c1ccccc12 [IV-1]
MIC (S. aureus USA300 (MRSA) [4]): >200 µM | MIC [5]: >200 µM | Oxacillin MIC (S. aureus USA100 (MRSA) [1]; [15]): 512 µg/mL | Fold Reduction (S. aureus USA100 (MRSA) [1]; [16]): 1 | MIC (S. aureus USA100 (MRSA) [6]): >200 µM | Oxacillin MIC (S. aureus USA300 (MRSA) [3]): 64 µg/mL | Fold Reduction (S. aureus USA300 (MRSA) [3]): 1 | Oxacillin MIC (S. aureus 43300 (MRSA); [17]): 32 µg/mL | Fold Reduction (S. aureus 43300 (MRSA); [18]): 1

Brc1cccc2c1[nH]c1ccccc12 [IV-2]
MIC (S. aureus USA300 (MRSA) [4]): >200 µM | MIC [5]: >200 µM | Oxacillin MIC (S. aureus USA100 (MRSA) [1]; [15]): 8 µg/mL | Fold Reduction (S. aureus USA100 (MRSA) [1]; [16]): 64 | MIC (S. aureus USA100 (MRSA) [6]): >200 µM | Oxacillin MIC (S. aureus USA300 (MRSA) [3]): 16/8 | Fold Reduction (S. aureus USA300 (MRSA) [3]): 4/8 | Oxacillin MIC (S. aureus 43300 (MRSA); [17]): 4 µg/mL | Fold Reduction (S. aureus 43300 (MRSA); [18]): 8

Brc1ccc2[nH]c3ccccc3c2c1 [IV-3]
MIC (S. aureus USA300 (MRSA) [4]): >200 µM | MIC [5]: >200 µM | Oxacillin MIC (S. aureus USA100 (MRSA) [1]; [15]): 512 µg/mL | Fold Reduction (S. aureus USA100 (MRSA) [1]; [16]): 1 | MIC (S. aureus USA100 (MRSA) [6]): >200 µM | Oxacillin MIC (S. aureus USA300 (MRSA) [3]): 64 µg/mL | Fold Reduction (S. aureus USA300 (MRSA) [3]): 1 | Oxacillin MIC (S. aureus 43300 (MRSA); [17]): 16 µg/mL | Fold Reduction (S. aureus 43300 (MRSA); [18]): 2

Brc1cccc2[nH]c3ccccc3c12 [IV-4]
MIC (S. aureus USA300 (MRSA) [4]): 100 µM | MIC [5]: 200 µM | Oxacillin MIC (S. aureus USA100 (MRSA) [1]; [15]): 4 µg/mL | Fold Reduction (S. aureus USA100 (MRSA) [1]; [16]): 128 | MIC (S. aureus USA100 (MRSA) [6]): 100 µM (≈ 24.6 µg/mL) | Oxacillin MIC (S. aureus USA300 (MRSA) [3]): 2 µg/mL | Fold Reduction (S. aureus USA300 (MRSA) [3]): 32 | Oxacillin MIC (S. aureus 43300 (MRSA); [17]): 32 µg/mL | Fold Reduction (S. aureus 43300 (MRSA); [18]): 1

Brc1ccc2[nH]c3ccc(Br)cc3c2c1 [IV-5]
MIC (S. aureus USA300 (MRSA) [4]): >200 µM | MIC [5]: >200 µM | Oxacillin MIC (S. aureus USA100 (MRSA) [1]; [15]): 4 µg/mL | Fold Reduction (S. aureus USA100 (MRSA) [1]; [16]): 128 | MIC (S. aureus USA100 (MRSA) [6]): >200 µM | Oxacillin MIC (S. aureus USA300 (MRSA) [3]): 32 µg/mL | Fold Reduction (S. aureus USA300 (MRSA) [3]): 2 | Oxacillin MIC (S. aureus 43300 (MRSA); [17]): 8/4 | Fold Reduction (S. aureus 43300 (MRSA); [18]): 4/8

CN[C@H](CC(C)C)C(=O)N[C@H]1C(=O)N[C@@H](CC(N)=O)C(=O)N[C@H]2C(=O)N[C@H]3C(=O)N[C@H](C(=O)N[C@H](C(=O)O)c4cc(O)cc(O)c4-c4cc3ccc4O)[C@H](O)c3ccc(c(Cl)c3)Oc3cc2cc(c3O[C@@H]2O[C@H](CO)[C@@H](O)[C@H](O)[C@H]2O[C@H]2C[C@](C)(N)[C@H](O)[C@H](C)O2)Oc2ccc(cc2Cl)[C@H]1O [Vancomycin]
MIC of antibiotic (S. aureus USA100 (MRSA) [1]; +Loratadine 25 μM, MRSA USA100): 2 µg/mL | MIC of antibiotic (S. aureus USA100 (MRSA) [1]; +Loratadine 50 μM, MRSA USA100): 2 µg/mL | Fold Reduction (S. aureus USA100 (MRSA) [1]; [7]): 1 | Fold Reduction (S. aureus USA100 (MRSA) [1]; [8]): 1 | MIC of antibiotic (S. aureus USA100 (MRSA) [1]; antibiotic alone, MRSA USA100): 2 µg/mL | MIC of antibiotic ([2]; +Loratadine 25 μM): 512 µg/mL | MIC of antibiotic ([2]; +Loratadine 50 μM): 128 µg/mL | Fold Reduction ([2]; +Loratadine 25 μM): 2 | Fold Reduction ([2]; +Loratadine 50 μM): 8 | MIC of antibiotic ([2]; antibiotic alone): 1024 µg/mL | MIC of antibiotic (S. aureus USA300 (MRSA) [3]; +Loratadine 25 μM): 1 µg/mL | MIC of antibiotic (S. aureus USA300 (MRSA) [3]; +Loratadine 50 μM): 1 µg/mL | MIC of antibiotic (S. aureus USA300 (MRSA) [3]; antibiotic alone): 1 µg/mL | MIC of antibiotic (S. aureus 43300 (MRSA); [9]): 2 µg/mL | MIC of antibiotic (S. aureus 43300 (MRSA); +Loratadine 25 μM, MRSA 43300): 1 µg/mL | MIC of antibiotic (S. aureus 43300 (MRSA); +Loratadine 50 μM, MRSA 43300): 1 µg/mL | Fold Reduction (S. aureus 43300 (MRSA); [10]): 1 | Fold Reduction (S. aureus 43300 (MRSA); [11]): 1 | Fold Reduction (S. aureus 43300 (MRSA); [12]): 1 | MIC of antibiotic (S. aureus 43300 (MRSA); [13]): 2 µg/mL | MIC of antibiotic (S. aureus 43300 (MRSA); [14]): 1 µg/mL
